{"source": "ChEMBL document CHEMBL1201862", "about": "“PubChem BioAssay data set” (2004)", "key": {"[1]": {"biological_target": "T1, Caspase-6 (Homo sapiens, UniProt P55212)", "T1 sequence (P55212 whole entry)": "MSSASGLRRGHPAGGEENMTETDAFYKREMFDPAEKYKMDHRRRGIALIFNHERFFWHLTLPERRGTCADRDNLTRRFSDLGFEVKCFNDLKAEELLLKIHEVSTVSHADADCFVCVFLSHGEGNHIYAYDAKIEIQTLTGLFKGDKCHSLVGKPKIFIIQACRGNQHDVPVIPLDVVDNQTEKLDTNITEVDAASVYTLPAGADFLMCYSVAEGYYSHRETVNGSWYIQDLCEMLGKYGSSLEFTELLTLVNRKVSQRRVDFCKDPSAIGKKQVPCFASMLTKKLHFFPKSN", "assay": "human caspase-6 inhibitors, dose response, biochemical, VEID-R110 fluorescence, cherry-pick (AID 720632)"}, "[2]": {"assay": "cells", "type": "functional, cell-based"}, "[3]": {"assay": "cells", "type": "functional, cell-based", "remark": "listed apart in the source"}, "[4]": {"assay": "inhibitors of Vif binding to APOBEC3G peptide, primary screen, biochemical, TR-FRET, GST-Vif 1-94, biotin-A3G peptide, dose response retest (AID 1117319);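 further: inhibitors lower the FRET signal by blocking Vif and A3G binding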", "type": "functional"}, "[5]": {"biological_target": "T2, fMet-Leu-Phe receptor (Homo sapiens, UniProt P21462)", "T2 sequence (P21462 whole entry)": "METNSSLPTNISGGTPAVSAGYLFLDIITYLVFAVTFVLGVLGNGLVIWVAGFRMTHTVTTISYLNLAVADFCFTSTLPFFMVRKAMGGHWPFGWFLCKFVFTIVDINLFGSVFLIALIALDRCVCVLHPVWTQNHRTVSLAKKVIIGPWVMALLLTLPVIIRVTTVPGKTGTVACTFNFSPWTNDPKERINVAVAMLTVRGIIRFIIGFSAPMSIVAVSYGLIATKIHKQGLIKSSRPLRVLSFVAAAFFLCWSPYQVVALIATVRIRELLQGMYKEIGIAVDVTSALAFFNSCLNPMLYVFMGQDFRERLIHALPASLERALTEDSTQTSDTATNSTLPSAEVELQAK", "assay": "FPR ligands, dose response (AID 519)", "type": "functional"}, "[6]": {"biological_target": "Induced myeloid leukemia cell differentiation protein Mcl-1 (Homo sapiens, UniProt Q07820)", "sequence (Q07820 whole entry)": "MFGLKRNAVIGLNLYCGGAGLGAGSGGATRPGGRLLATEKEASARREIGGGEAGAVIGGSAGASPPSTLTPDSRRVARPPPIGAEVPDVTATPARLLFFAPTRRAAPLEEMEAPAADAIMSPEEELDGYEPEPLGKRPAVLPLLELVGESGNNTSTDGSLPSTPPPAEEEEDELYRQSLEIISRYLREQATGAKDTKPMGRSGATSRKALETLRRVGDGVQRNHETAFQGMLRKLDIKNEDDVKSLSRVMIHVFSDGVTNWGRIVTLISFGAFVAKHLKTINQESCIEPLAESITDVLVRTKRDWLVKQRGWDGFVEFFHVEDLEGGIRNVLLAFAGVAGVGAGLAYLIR", "type": "functional"}, "[7]": {"assay": "THP-1 cell cytotoxicity, dose response, cytotoxicity control for Vif-APOBEC3G degradation inhibitor project, THP-1 cells (AID 1117359)", "type": "functional", "settings": "Human immunodeficiency virus 1, THP-1"}, "[8]": {"assay": "miR-122 activators in hepatoma reporter cells, dose response, cell-based, Huh7 psiCHECK-miR122, Renilla luciferase, cherry-picked (AID 651956);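 further: huh7 hepatoma cells stably carrying a psiCHECK-2 miR-122 sensor plasmid; renilla luciferase signal reporting endogenous miR-122 activity after 48 h compound exposure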", "type": "functional"}, "[9]": {"assay": "inhibitors of HIV Env-driven cell fusion, dose response, cherry-pick (AID 652057)", "type": "functional, cell-based"}, "[10]": {"assay": "ZM109 Env clade C HIV-1 fusion inhibitors, dose response, HeLa effector, CEM target cells, luciferase, cherry-pick (AID 652058)", "type": "functional, cell-based"}, "[11]": {"assay": "inhibitors of clade B AD8 Env fusion, dose response, cell-based, cherry-pick (AID 652062);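 further: potency is for inhibitors of fusion seen as a drop in luminescence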", "type": "functional"}, "[12]": {"assay": "Luminescence-based cell-based high throughput dose response assay to identify activators of the DAF-12 from the parasite S. stercoralis (ssDAF-12).", "type": "functional"}, "[13]": {"biological_target": "T3, Endoribonuclease toxin MazF (Escherichia coli K-12, UniProt P0AE70)", "T3 sequence (P0AE70 whole entry)": "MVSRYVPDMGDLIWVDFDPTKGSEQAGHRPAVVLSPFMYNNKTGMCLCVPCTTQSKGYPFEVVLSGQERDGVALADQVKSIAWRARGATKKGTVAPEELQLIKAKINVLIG", "assay": "MazF toxin RNase activators, dose response, biochemical, fluorescence, single-stranded RNA substrate, uHTS hits (AID 588481)", "type": "functional"}, "[14]": {"biological_target": "T3, Endoribonuclease toxin MazF", "assay": "fluorescent RNA oligo signal without MazF, dose response, counter-screen for MazEF activator project, biochemical, fluorescence, single-stranded RNase substrate (AID 588502)", "type": "functional"}}, "note": "The source made the active and inactive calls."}
{"smiles": "COCCN(C(=O)c1cc2c(s1)CCC2)c1c(N)n(CC(C)C)c(=O)[nH]c1=O", "values": [{"measurement": "AC50", "setting": "[1]", "result": "22.4 µM (active)"}]}
{"smiles": "O=C(Cn1cnc2c(oc3ccccc32)c1=O)NCCc1ccccc1", "values": [{"measurement": "IC50", "setting": "[2]", "result": "> 29.9 µM (inactive)"}, {"measurement": "EC50", "setting": "[3]", "result": "> 29.9 µM (inactive)"}]}
{"smiles": "O=C1c2ccccc2C(=O)N1CCC(c1ccc(F)cc1)c1ccco1", "note": "(centres undefined)", "values": [{"measurement": "IC50", "setting": "[4]", "result": "> 100 µM (active)"}]}
{"smiles": "C=CCOc1ccc(C2C(C(=O)c3ccco3)=C(O)C(=O)N2Cc2cccnc2)cc1", "note": "(centres undefined)", "values": [{"measurement": "Ki", "setting": "[5]", "result": "9.7 µM (active)"}]}
{"smiles": "COc1cc(C2Nc3cccc4cccc(c34)N2)cc(OC)c1OC(C)=O", "values": [{"measurement": "IC50", "setting": "[6]", "result": "2.8 µM (active)"}, {"measurement": "CC50", "setting": "[7]", "result": "> 40 µM (active)"}]}
{"smiles": "O=C(NNc1cc(Cl)cc(Cl)c1)c1c(F)cccc1Cl", "values": [{"measurement": "CC50", "setting": "[7]", "result": "> 40 µM (active)"}]}
{"smiles": "CCN(C[C@H]1[C@H](c2ccccc2)[C@@H](CO)N1C(=O)C1CC1)C(=O)NC1CCCC1", "values": [{"measurement": "AC50", "setting": "[8]", "result": "47.8 µM (active)"}]}
{"smiles": "COc1ccc(-n2c(=O)[nH]c3ccccc3c2=O)c(OC)c1", "values": [{"measurement": "IC50", "setting": "[4]", "result": "> 100 µM (active)"}]}
{"smiles": "CCCCC1=CC2=C(c3ccco3)C(=O)C(C)(OC(=O)c3ccc(OC)cc3)C(=O)C2=CN1CCCCO", "note": "(centres undefined)", "values": [{"measurement": "IC50", "setting": "[4]", "result": "> 100 µM (active)"}]}
{"smiles": "Clc1ccc(/C(Cc2nc3ccccc3[nH]2)=N\\Nc2ccccc2)cc1", "values": [{"measurement": "CC50", "setting": "[7]", "result": "> 40 µM (active)"}]}
{"smiles": "CCN(C[C@@H]1[C@@H](c2ccc(C3=CCCCC3)cc2)[C@@H](CO)N1CC1CC1)C(C)=O", "values": [{"measurement": "AC50", "setting": "[8]", "result": "31.2 µM (active)"}]}
{"smiles": "CCCC#Cc1ccc2c(c1)O[C@@H](CN(C)S(=O)(=O)c1cccc(F)c1)[C@@H](C)CN([C@@H](C)CO)S2(=O)=O", "values": [{"measurement": "AC50", "setting": "[9]", "result": "4.98 µM (active)"}, {"measurement": "AC50", "setting": "[10]", "result": "3.62 µM (active)"}, {"measurement": "AC50", "setting": "[11]", "result": "13.3 µM (active)"}]}
{"smiles": "CCC(C)N1C(=O)/C(=C\\c2ccc(N3CCCCCC3)cc2)C(=O)NC1=S", "note": "(centres undefined)", "values": [{"measurement": "IC50", "setting": "[12]", "result": "> 67.5 µM (inactive)"}]}
{"smiles": "COc1ccc2nc(SCC(=O)N3CC(=O)Nc4ccccc43)c(C#N)cc2c1", "values": [{"measurement": "EC50", "setting": "[13]", "result": "> 99 µM (inactive)"}, {"measurement": "EC50", "setting": "[14]", "result": "> 99 µM (inactive)"}]}
